# Assay results published in patent US8986696B2, “Trans-capsular administration of p38 map kinase inhibitors into orthopedic joints” (DePuy Mitek, Inc., priority 2007, dated 2015).
# Experiments:
# [1] = system: rabbit anterior cruciate ligament transection (ACLT) model of osteoarthritis; assay: ACLT model, SCIO-469 (Example VIII); assay type: in vivo
# Method: The formulation of the highest concentration was diluted into the lower concentrations using ORTHOVISC®. Once prepared, the formulations were stored at 4° C. The study design consisted of an n=12 per group. The SCIO-469 (SD 469) was suspended in ORTHOVISC®. A total of 160 μl was injected at each administration. The intra-articular injections were performed according to the ACLT model. However, control groups either received no injections or received the ORTHOVISC® vehicle delivered once weekly for three weeks. Euthanasia was performed according to the ACLT model. However, the animals were euthanized nine weeks post ACLT with an intravenous injection of pentobarbital (60 mg/kg). […] At the time of sacrifice the following parameters were evaluated grossly (the scale follows in parenthesis): Each parameter was given a score. The combination of all parameters gave a Total Score (0-52). […] Lastly, an All Cartilage Effects Score was obtained. The score for All Cartilage Effects ranges from 0 to 40. The grades that compose this parameter are trochlear groove thickness and erosion, all the grades in All Condylar Effects, and all grades listed under tibial plateau. A higher score indicates more damage to the joint. A lower score indicates less damage or more cartilage preservation to the joint. Individual results for each parameter assessed were tabulated (data not shown).
# [2] = system: IL-1β-stimulated GAG release, bovine chondrocyte pellets / ARC tissues; assay: chondrocyte pellet culture model: GAG degradation; assay type: cell-based
# Excerpt: (§1) Calf articular cartilage was obtained from the knee joints of eight to twelve month old animals and was processed within twenty-four hours after sacrifice. After removal of muscle and ligament, the cartilage was kept moist using phosphate buffer solution (PBS) to prevent tissue dehydration, and was aseptically peeled off from subchondral bone with a scalpel, and the cartilage pieces were further minced into smaller pieces (˜0.3-0.5×˜0.2-0.5 cm cubes). […] Chondrocytes were then enzymatically isolated from the tissue by incubation for overnight at 37° C. with gentle agitation in 0.2% collagenase in Dulbecco's modified eagle media (DMEM). After removal of tissue debris by filtration through cell strainer and the residual collagenase by 3× wash in PBS, cells were finally resuspended at a density of 2.5×10^6 cells/ml in chondrocyte medium. A 1 ml aliquot of the cell suspension was dispensed into either a 15 ml Falcon centrifuge tube or a 96 deep-well plate and centrifuged at 2000×g for five minutes. The chondrocyte pellets were incubated at 37° C. in a humidified atmosphere of 5% CO2 for two to three weeks with a medium change every other day.
# (§2) As an alternative to using calf articular cartilage, a commercial Alginate Recovered Chondrocytes (ARC) system was also used (Articular Engineering, LLC (Northbrook, Ill.)). Use of the commercial system cut down on labor and time in producing chondrocyte pellet. This system produced cartilaginous tissue in vitro using bovine chondrocytes. The first step consisted of culturing chondrocytes in alginate under conditions optimal for the formation of a cell-associated matrix (CM). The second step allowed these cells with their CM, after recovery, to rapidly form and become integrated into a solid mass of cartilage on a porous insert within two weeks. This tissue is rich in cells surrounded by a cell-associated matrix that is degraded rapidly when the cells are exposed to IL-1. ARC tissues in 3 mm punches at delivery were first dispensed into a 96 deep-well plate, one punch per well, for compound treatment. The subsequent procedures were the same as those used for the chondrocyte pellets.
# (§3) Chondrocyte pellets were washed once with 1 ml of Chondrocyte Stimulation Medium and equilibrated in the same medium at room temperature for fifteen to thirty minutes. Compounds were dissolved in H2O, Ethanol or dimethyl sulfoxide (DMSO) (10^−2 M) according to suppliers' instructions and further diluted with Chondrocyte Stimulation Medium to the required concentrations. DMSO concentrations in the culture media should not exceed 1%; this concentration of DMSO has no effect on cartilage proteoglycan metabolism in response to cytokines.
# […] At the end of the incubation, media and pellets were harvested and frozen for further analysis. Pellets were also fixed as needed in 4% (w/v) paraformaldehyde in PBS for histology analysis.
# Glycosaminoglycan (GAG) levels in the culture media were determined by measuring the amount of polyanionic material reacting with 1,9-dimethylmethylene blue (DME) as detected by absorbance at 525 nm, using shark chondroitin sulfate as a standard. The DME blue dye-binding solution was prepared by dissolving 16 mg of DME blue in a solution containing 0.304% glycine, 0.23% sodium chloride (NaCl), 9.5 mM hydrochloric acid (HCl), pH=3.0 with absorbance at 525 equal to 0.31. Proteoglycans and proteoglycan metabolites in chondrocyte pellet were released by digesting the pellet with 125 μg/ml of papain in 0.1 M PBS, pH 6.0, 5 mM cysteine, 5 mM ethylene-diamine-tetra-acetic acid disodium salt (Na2EDTA) at 50° C. for overnight. Results are reported as either micrograms of GAG per milliliter or percent of total GAG released into culture medium.
# [3] = drug content in the joints (Example VIII); assay type: in vivo, rabbit; conditions: at the time of analysis
# Excerpt: For each treatment group, four animals were included to provide pharmacokinetic data (available drug levels in blood and tissue). Prior to treatment administration, blood samples were collected and frozen for analysis. After gross observation, the joints were removed and frozen for analysis.
# [4] = system: chondrocytes; assay type: cell-based; conditions: bovine, 100000 nM
# Excerpt: as §1, §2, §3
# The pellets were first treated with compounds at desired concentrations at 37° C. for one hour and then incubated for three to five days in the absence or presence of 10 ng/ml of IL-1β. At the end of the incubation, media and pellets were harvested and frozen for further analysis. Pellets were also fixed as needed in 4% (w/v) paraformaldehyde in PBS for histology analysis.
# The LDH activity was determined colorimetrically in an enzymatic test based on the conversion of lactic acid to pyruvate in the presence of chromagenic substrate tetrazolium salt INT that was reduced to formazan.
smiles,measurement,setting,value
C[C@@H]1CN(Cc2ccc(F)cc2)[C@@H](C)CN1C(=O)c1cc2c(C(=O)C(=O)N(C)C)cn(C)c2cc1Cl [SCIO-469 (SD 469)],"All Cartilage Effects (0-40), mean",[1]; 0.5 μg/kg,12.75
same,"All Condylar Effects (0-18), mean",[1]; 0.5 μg/kg,6.45
same,"All Tibial Plateau Effects (0-24), mean",[1]; 0.5 μg/kg,7.20
same,"All Trochlear Groove Effects (0-10), mean",[1]; 0.5 μg/kg,8.40
same,"Femoral Condyle % Surface Area Erosion (Lateral), mean score",[1]; 0.5 μg/kg,2.80
same,"Femoral Condyle % Surface Area Erosion (Medial), mean score",[1]; 0.5 μg/kg,0.90
same,"Femoral Condyle Depth of Erosion (Lateral), mean score",[1]; 0.5 μg/kg,2.00
same,"Femoral Condyle Depth of Erosion (Medial), mean score",[1]; 0.5 μg/kg,0.55
same,"Femoral Condyle Presence of Clefts, mean score",[1]; 0.5 μg/kg,0.20
same,"Tibial Plateau # of Osteophytes (Lateral), mean score",[1]; 0.5 μg/kg,1.50
same,"Tibial Plateau # of Osteophytes (Medial), mean score",[1]; 0.5 μg/kg,1.80
same,"Tibial Plateau % Surface Area Erosion (Lateral), mean score",[1]; 0.5 μg/kg,2.00
same,"Tibial Plateau % Surface Area Erosion (Medial), mean score",[1]; 0.5 μg/kg,0
same,"Tibial Plateau Depth of Erosion (Lateral), mean score",[1]; 0.5 μg/kg,1.90
same,"Tibial Plateau Depth of Erosion (Medial), mean score",[1]; 0.5 μg/kg,0
same,"Tibial Plateau Presence of Clefts (Lateral), mean score",[1]; 0.5 μg/kg,0
same,"Tibial Plateau Presence of Clefts (Medial), mean score",[1]; 0.5 μg/kg,0
same,"Total Score (0-52), mean",[1]; 0.5 μg/kg,22.05
same,"Trochlear Groove # of Osteophytes, mean score",[1]; 0.5 μg/kg,3.00
same,"Trochlear Groove Erosion of Cartilage, mean score",[1]; 0.5 μg/kg,2.40
same,"Trochlear Groove Osteophyte Size, mean score",[1]; 0.5 μg/kg,3.00
same,"Trochlear Groove Thickening, mean score",[1]; 0.5 μg/kg,0
same,"All Cartilage Effects (0-40), mean",[1]; 5 μg/kg,13.17
same,"All Condylar Effects (0-18), mean",[1]; 5 μg/kg,6.50
same,"All Tibial Plateau Effects (0-24), mean",[1]; 5 μg/kg,7.08
same,"All Trochlear Groove Effects (0-10), mean",[1]; 5 μg/kg,8.08
same,"Femoral Condyle % Surface Area Erosion (Lateral), mean score",[1]; 5 μg/kg,1.67
same,"Femoral Condyle % Surface Area Erosion (Medial), mean score",[1]; 5 μg/kg,1.67
same,"Femoral Condyle Depth of Erosion (Lateral), mean score",[1]; 5 μg/kg,1.96
same,"Femoral Condyle Depth of Erosion (Medial), mean score",[1]; 5 μg/kg,1.21
same,"Femoral Condyle Presence of Clefts, mean score",[1]; 5 μg/kg,0
same,"Tibial Plateau # of Osteophytes (Lateral), mean score",[1]; 5 μg/kg,1.08
same,"Tibial Plateau # of Osteophytes (Medial), mean score",[1]; 5 μg/kg,1.67
same,"Tibial Plateau % Surface Area Erosion (Lateral), mean score",[1]; 5 μg/kg,1.50
same,"Tibial Plateau % Surface Area Erosion (Medial), mean score",[1]; 5 μg/kg,0.58
same,"Tibial Plateau Depth of Erosion (Lateral), mean score",[1]; 5 μg/kg,1.63
same,"Tibial Plateau Depth of Erosion (Medial), mean score",[1]; 5 μg/kg,0.63
same,"Tibial Plateau Presence of Clefts (Lateral), mean score",[1]; 5 μg/kg,0
same,"Tibial Plateau Presence of Clefts (Medial), mean score",[1]; 5 μg/kg,0
same,"Total Score (0-52), mean",[1]; 5 μg/kg,21.67
same,"Trochlear Groove # of Osteophytes, mean score",[1]; 5 μg/kg,2.83
same,"Trochlear Groove Erosion of Cartilage, mean score",[1]; 5 μg/kg,2.17
same,"Trochlear Groove Osteophyte Size, mean score",[1]; 5 μg/kg,2.92
same,"Trochlear Groove Thickening, mean score",[1]; 5 μg/kg,0.17
same,"All Cartilage Effects (0-40), mean",[1]; 50 μg/kg,8.32
same,"All Condylar Effects (0-18), mean",[1]; 50 μg/kg,4.18
same,"All Tibial Plateau Effects (0-24), mean",[1]; 50 μg/kg,5.41
same,"All Trochlear Groove Effects (0-10), mean",[1]; 50 μg/kg,6.91
same,"Femoral Condyle % Surface Area Erosion (Lateral), mean score",[1]; 50 μg/kg,1.18
same,"Femoral Condyle % Surface Area Erosion (Medial), mean score",[1]; 50 μg/kg,1.27
same,"Femoral Condyle Depth of Erosion (Lateral), mean score",[1]; 50 μg/kg,1.05
same,"Femoral Condyle Depth of Erosion (Medial), mean score",[1]; 50 μg/kg,0.68
same,"Femoral Condyle Presence of Clefts, mean score",[1]; 50 μg/kg,0
same,"Tibial Plateau # of Osteophytes (Lateral), mean score",[1]; 50 μg/kg,0.91
same,"Tibial Plateau # of Osteophytes (Medial), mean score",[1]; 50 μg/kg,1.73
same,"Tibial Plateau % Surface Area Erosion (Lateral), mean score",[1]; 50 μg/kg,1.09
same,"Tibial Plateau % Surface Area Erosion (Medial), mean score",[1]; 50 μg/kg,0.36
same,"Tibial Plateau Depth of Erosion (Lateral), mean score",[1]; 50 μg/kg,1.14
same,"Tibial Plateau Depth of Erosion (Medial), mean score",[1]; 50 μg/kg,0.18
same,"Tibial Plateau Presence of Clefts (Lateral), mean score",[1]; 50 μg/kg,0
same,"Tibial Plateau Presence of Clefts (Medial), mean score",[1]; 50 μg/kg,0
same,"Total Score (0-52), mean",[1]; 50 μg/kg,16.50
same,"Trochlear Groove # of Osteophytes, mean score",[1]; 50 μg/kg,2.64
same,"Trochlear Groove Erosion of Cartilage, mean score",[1]; 50 μg/kg,1.36
same,"Trochlear Groove Osteophyte Size, mean score",[1]; 50 μg/kg,2.91
same,"Trochlear Groove Thickening, mean score",[1]; 50 μg/kg,0
same,"utility in ACLT model, gross observations","[1]; 0.5, 5 or 50 μg/kg, direct injection into a diseased joint",did not demonstrate the utility
same,inhibition of GAG degradation,[2]; ARC tissues stimulated with IL-1β,no effect
same,GAG Release,[2]; Pellet Assay,No effect
same,drug content in the joints,[3],no drug could be detected
same,increase of LDH level,[4],121%
